In ChEMBL document CHEMBL3733935, “Pyrazolylbenzothiazole derivatives and their use as therapeutic agents” (2013):
The source made the active and inactive calls.

Columns and labels:
Type in all cases: functional, cell-based
[1] = organism: Mus musculus; assay: Cytoprotective activity against PAN-induced toxicity in mouse K5P5 cells assessed as increase in cell spreading at 2.5 to 25 uM after 48 to 72 hrs by crystal violet staining assay
[2] = organism: Mus musculus; assay: Cytoprotective activity against PAN-induced toxicity in mouse K5P5 cells assessed as increase in overall cell number at 2.5 to 25 uM after 48 to 72 hrs by crystal violet staining assay
[3] = organism: Mus musculus; assay: Cytoprotective activity against PAN-induced toxicity in mouse K5P5 cells assessed as increase in cell size at 2.5 to 25 uM after 48 to 72 hrs by crystal violet staining assay

Measured: Activity

COc1cc2sc(-c3c(-c4ccco4)n[nH]c3N)nc2cc1F
active: all assays above

CNS(=O)(=O)c1ccc2nc(-c3c(N)n[nH]c3C)sc2c1
active: all assays above

Cc1[nH]nc(N)c1-c1nc2cc(F)c(S(N)(=O)=O)cc2s1
active: all assays above

Cc1[nH]nc(N)c1-c1nc2ccc(CN(C)C)cc2s1
active: all assays above

Cc1[nH]nc(N)c1-c1nc2cc(F)c(S(=O)(=O)NCCO)cc2s1
active: all assays above
